Test results reported in patent publication US6451846B1, “Isocoumarin derivatives inhibiting angiogenesis” (Korea Research Institute of Bioscience and Biotechnology, priority 1999, dated 2002).
Entries after “also recorded” stand apart in the source; their conditions may differ.

Tests used:
[1] = tested on: chorioallantoic membranes at 4.5-day old chick embryo; assay: Chorioallantoic membrane (CAM) assay, inhibition of angiogenesis in vivo; conditions: positive eggs/used eggs × 100%
Method: Chorioallantoic membrane (CAM) assay was used to measure whether the two isocoumarin derivatives are effective to inhibit angiogenesis in vivo. Fertilized chick eggs were kept in a humidified incubator at 37° C. After 3 days incubation, egg albumin were removed with hypodermic needle to allow CAM and yolk sac to drop away from the shell membrane. On day 3.5, the shell was punched out and removed to be a circular window and the shell membrane was removed. For testing of angiogenesis inhibition, a pieces of thermanox coverslip was coated with various concentration of the isocoumarin derivatives. The thermanox coverslip was placed on the chorioallantoic membranes at 4.5-day old chick embryo. After 2 days incubation at 37° C., 10% fat emulsion was injected into chorioallantois and observed blood vessel formation during an embryogenesis or development procedure. As a positive control, retinoic acid was used and non-treated coverslip for negative control.
Chorioallantoic membrane (CAM) assay was used to measure whether the two compounds obtained in Example 1 are effective to inhibit angiogenesis in vivo. Fertilized chick eggs were kept in a humidified incubator at 37° C. After 3 days incubation, about 2 ml of egg albumin were removed with hypodermic needle to allow CAM and yolk sac to drop away from the shell membrane. On day 3.5, the shell was punched out and removed to be a circular window and the shell membrane was removed. For testing of angiogenesis inhibition, a pieces of thermanox coverslip was coated with the isocoumarin derivatives dissolved in ethanol at concentration of 1, 5 and 10 μg/coverslip and the ethanol was evaporated. The thermanox coverslip were placed on the chorioallantoic membranes at 4.5-day old chick embryo. After 2 days incubation at 37° C., 1-2 ml of 10% fat emulsion was injected into chorioallantois and observed blood vessel formation during an embryogenesis or development procedure under a microscope. As a positive control, 1 μg/egg of retinoic acid was used and a negative control was non-treated. coverslip.

HUVEC = assay: Cytotoxicity to HUVEC; assay type: cell-based, human; conditions: same concentrations as in the angiogenesis inhibition
[2] = Acute toxicity test with rat; conditions: in vivo, 300 mg/kg; for Death and clinical symptoms / Toxic signs in weight change, serologic test, serobiochemical test, corpse examination: po; for LD50: rat, SD-rats, single oral administration, read-out: lethal dose (LD50)
Method: Specific pathogen-free (SPF) SD-rats (six weeks old) were used for the test of acute toxicity. Suspensions of the compounds of formulae 2 and 3 in 0.5% methyl cellulose were orally administered once at a dose of 300 mg/kg/10 ml to the rats. After the administration, the animals were observed as to their death, clinical symptoms and weight change, and serological and serobiochemically tested. An autopsy was made over the rats with the naked eye to observe whether their abdominal and thoracic organs were damaged. […] The compounds tested caused no toxic changes rats over the rats to the dose of 300 mg/lkg and thus, found to be safe compounds with a lethal dose (LD50) of at least 300 mg/kg when being administered via an oral route.

[3] = tested on: human umbilical vein endothelial cells (HUVEC); assay: Inhibition of tube formation in human endothelial cells on Matrigel; assay type: cell-based; conditions: for inhibition at 0.5 µg/mL: 0.5 μg/ml; for inhibition at 1 µg/mL: 1.0 μg/ml
Excerpt: In order to determine the inhibitory effect of the isocoumarin derivatives against the angiogenesis, in vitro, endothelial cells, HUVEC (human umbilical vein endothelial cell) are selected. Under a specific culture condition, endothelial cells are migrated and differentiated into capillary tubes. Similar to the angiogenesis in vivo, the tube formation assay may be a good model to determine the influence of the isocoumarin derivatives on angiogenesis.
Various concentrations of the two isocoumarin derivatives are added to endothelial cells to monitor under a microscope whether the isocoumarin derivatives inhibited the differentiation of endothelial cells into capillary tubes. From this experiment, the two isocoumarin derivatives are found to inhibit the angiogenesis in concentration-dependent manners. […] However, the differentiation of HUVEC into a capillary tube is inhibited by 6,8-dihydroxy-4-acetyl-isocoumarin down to the concentration of as low as 0.2 μg/ml.
To determine the inhibitory effect of the two compounds obtained in Example 1 on the angiogenesis in vitro, human umbilical vein endothelial cells (HUVEC) were used as a model on the basis that they are migrated and differentiated into capillary tubes on Matrigel HUVEC was cultured in a gelatin-coated culture flask with an M199 medium supplemented with 20% FBS, 2 ng/ml bFGF and 100 μg/ml heparin at 37° C. incubator in a humidified atmosphere containing 5% CO2. The cultured HUVEC were treated with trypsin/EDTA to make a single cell suspension, the cells were plated on Matrigel coated 96-well plates with an M199 medium supplemented with 20% FBS, 2 ng/ml bFGF and 100 μg/ml heparin) at a density of 2×10^4 cells/well. The two compounds obtained in Example 1 were independently added at various concentrations into the wells and the plate was incubated for 18-48 hours in a CO2 incubator. The formation of capillary-like tube was monitored under a microscope during the incubation. The cells in the well containing vehicle (DMSO) became to be robuster and longer hollow tube networks as incubation time went on, but the tubes in the wells containing samples were broken and shortened. The inhibitory activity against tube formation was compared with control by measuring the length of the capillary tubes formed.

[4] = Homo sapiens, length of capillary tubes vs control, read-out: Inhibitory activity (%) against tube formation

SMILES | Inhibition rate (%) ([1]; 1 μg/egg) | Cytotoxicity to HUVEC (HUVEC) | Death and clinical symptoms [2] | Toxic signs in weight change, serologic test, serobiochemical test, corpse examination [2] | LD50 [2] | Inhibition rate (%) ([1]; 5 μg/egg) | Inhibition rate (%) ([1]; 10 μg/egg) | Lowest concentration still inhibiting differentiation of HUVEC into capillary tubes [3] | inhibition at 0.05 µg/mL ([3]; Homo sapiens, 0.05 μg/ml, length of capillary tubes vs control, read-out: Inhibitory activity (%) against tube formation) | inhibition at 0.2 µg/mL ([3]; Homo sapiens, 0.2 μg/ml, length of capillary tubes vs control, read-out: Inhibitory activity (%) against tube formation) | inhibition at 0.5 µg/mL [3, 4] | inhibition at 1 µg/mL [3, 4] | Inhibition rate (%) ([1]; 10 μg/egg, listed as 6,8-dihydroxy-4-(1-hydroxyetyl)-isocoumarin) | inhibition at 4 µg/mL ([3]; Homo sapiens, 4 μg/ml, length of capillary tubes vs control, read-out: Inhibitory activity (%) against tube formation) | inhibition at 10 µg/mL ([3]; Homo sapiens, 10 μg/ml, length of capillary tubes vs control, read-out: Inhibitory activity (%) against tube formation)
CC1=C(/C=C/C(C)=C/C=C/C(C)=C/C(=O)O)C(C)(C)CCC1 [retinoic acid, reference compound] | 79.2% | – | – | – | – | – | – | – | – | – | – | – | – | – | –
CC(=O)c1coc(=O)c2c(O)cc(O)cc12 [6,8-dihydroxy-4-acetyl-isocoumarin] | 50.0% | no cytotoxicity; also recorded: did not show cytotoxicity | Neither sudden death nor noticeable clinical symptoms were detected | no toxic signs were observed | ≥ 300 mg/kg | 83.3% | 93.3% | 0.2 µg/mL | 0% | 50% | 85% | 100% | – | – | –
CC(O)c1coc(=O)c2c(O)cc(O)cc12 (centres unmarked) [6,8-dihydroxy-4-(1-hydroxyethyl)-isocoumarin] | 27.3% | did not show cytotoxicity | Neither sudden death nor noticeable clinical symptoms were detected | no toxic signs were observed | ≥ 300 mg/kg | 66.7% | 83.3% | 4 µg/mL | – | – | 0% | 0% | 78.6% | 60% | 100%
